From patent publication US9066922B2, “Pharmaceutical composition for the treatment or prevention of diseases involving obesity, diabetes, metabolic syndrome, neuro-degenerative diseases and mitochondria dysfunction diseases” (MD BIOALPHA CO., LTD., priority 2005, dated 2015)

Columns and labels:
[1] = tested on: C57BL/6JL Lep ob/Lep ob mice; assay: Blood lipid, glucose and enzyme levels in obese mice (ob/ob); type: in vivo; set-up: unit not given here; conditions: 100 mg/kg for 26 days
Excerpt: (§1) 10-week-old C57BL/6JL Lep ob/Lep ob male mice having obesity characteristics and predisposition were purchased from Daehan Biolink Co., Ltd. (Chungchongbuk-do, Korea). Animals were raised in a breeding room maintained at a temperature of 23 C, 55% humidity, illumination of 300 to 500 lux, a 12-h light/dark (L/D) cycle, and ventilation of 10 to 18 times/hr. Animals were fed ad libitum pellets of Purina Rodent Laboratory Chow 5001 (purchased from Purina Mills Inc., St. Louis, Mo., USA) as a solid feed for experimental animals and tap water as drinking water. Mice were allowed to acclimate to new environment of the breeding room for two weeks and were then administered some pyrano-o-naphthoquinone and furano-o-naphthoquinone derivatives synthesized according to the present invention at doses of 100 mg/kg for 26 days. Observation was made on changes in body weight, blood glucose and dietary intake, with respect to a time course of administration. After administration was complete, Computed Tomography (CT) was performed to confirm changes in adipose tissue distribution of animals, changes in fat distribution of tissues in various organs, changes in sizes of adipocytes, and changes in glucose, lipid and enzyme levels in blood and liver.

AMPK = assay: Determination of AMPK activation in C2C12 myoblast cells (SAMS peptide, [γ-32P]ATP); type: cell-based; conditions: differentiated C2C12 myoblast cells, 5 μg/ml, compared with control (DMSO 0.5% = 1)
Protocol: Myoblast cells, C2C12, were cultured in DMEM containing 10% bovine calf serum. When a cell density reached a range of about 85% to 90%, the culture medium was replaced with a medium containing 1% bovine calf serum to induce differentiation of cells. The thus-differentiated myoblast cells were treated with samples synthesized in Examples 1 through 29 at a concentration of 5 μg/ml, and compared with a control group. Enzymatic activity of AMPK was determined as follows. Firstly, C2C12 cells were lysed to obtain protein extracts and then ammonium sulfate was added to a final concentration of 30%, thereby precipitating proteins. Protein precipitates were dissolved in a buffer (62.5 mM Hepes, pH 7.2, 62.5 mM NaCl, 62.5 mM NaF, 1.25 mM Na pyrophosphate, 1.25 mM EDTA, 1 mM DTT, 0.1 mM PMSF, and 200 μM AMP). Thereafter, 200 μM SAMS peptide (HMRSAMSGLHLVKRR: the underlined serine residue is a phosphorylation site, as an AMPK phosphorylation site of acetyl-CoA carboxylase) and [γ-32P]ATP were added thereto and reactants were reacted for 10 minutes at 30° C. This was followed by spotting of the resulting reaction solution on p81 phosphocellulose paper. The p81 paper was washed with a 3% phosphoric acid solution and radioactivity thereof was measured. For each reaction condition, reactions involving no SAMS peptide were also conducted and basic values were subtracted from the thus-observed values.

Sprague-Dawley rats [2] = assay: Acute toxicity test, peritoneal administration; type: in vivo; conditions: peritoneal, 50, 100 and 200 mg/kg, observed for 2 weeks, vs control group
[3] = tested on: C57BL/6JL Lep ob/Lep ob mice; assay: Weight loss effects in obese mice (ob/ob): body weight; type: in vivo; conditions: 100 mg/kg for 26 days; for change in vivo at 100 mg/kg: Mus musculus, 624 h, read-out: Increase in BW
Excerpt: as §1

Sprague-Dawley rats [4] = assay: Acute toxicity test, oral administration; type: in vivo; conditions: oral, 50, 100 and 200 mg/kg, observed for 2 weeks, vs control group

| SMILES | Cholesterol [1] | GOT [1] | GPT [1] | Glucose [1] | Triglyceride [1] | AMPK fold (AMPK) | visually observable symptoms (Sprague-Dawley rats [2]) | Final BW [3] | change in vivo at 100 mg/kg [3] | visually observable symptoms (Sprague-Dawley rats [4]) |
| --- | --- | --- | --- | --- | --- | --- | --- | --- | --- | --- |
| CC1OC2=C(C(=O)C(=O)c3ccccc32)C1(C)C (centres unmarked) [Compound 2, Dunnione] | 123 | 50 | 43 | 125 | 154 | 1.4 fold | no visually observable symptoms with exception of weight loss | 28.7 g | -46.2% | no visually observable symptoms with exception of weight loss |
| CC1C2=C(OC1(C)C)c1ccccc1C(=O)C2=O (centres unmarked) [Compound 3] | 128 | 36 | 32 | 122 | 129 | 3.2 fold | no visually observable symptoms with exception of weight loss | 39.7 g | -27.9% | no visually observable symptoms with exception of weight loss |
| CC1(C)CC2=C(O1)c1ccccc1C(=O)C2=O [Compound 4] | 130 | 48 | 44 | 134 | 148 | 2.2 fold | no visually observable symptoms with exception of weight loss | 40.0 g | -27.8% | no visually observable symptoms with exception of weight loss |
| CC1CC2=C(O1)c1ccccc1C(=O)C2=O (centres unmarked) [Compound 5] | 117 | 38 | 29 | 112 | 137 | 1.3 fold | – | 36.1 g | -39.5% | – |
| O=C1C(=O)c2ccccc2C2=C1CCO2 [Compound 6] | – | – | – | – | – | 2.2 fold | – | – | – | – |
| O=C1C(=O)c2ccccc2C2=C1CCC(c1ccccc1)O2 (centres unmarked) [Compound 7] | – | – | – | – | – | 2.2 fold | – | – | – | – |
| CC1OC2=C(C(=O)C(=O)c3ccccc32)C1c1ccccc1 (centres unmarked) [Compound 8] | – | – | – | – | – | 1.9 fold | – | – | – | – |
| C=C1OC2=C(C(=O)C(=O)c3ccccc32)C1(C)C [Compound 9] | – | – | – | – | – | 2.6 fold | – | – | – | – |
| COC1(C)OC2=C(C(=O)C(=O)c3ccccc32)C1(C)C (centres unmarked) [Compound 10] | – | – | – | – | – | 1.6 fold | – | – | – | – |
| CC1(C)C=CC2=C(O1)c1ccccc1C(=O)C2=O [Compound 11] | – | – | – | – | – | 1.3 fold | – | – | – | – |
| C=CC1(C)CCC2=C(O1)c1ccccc1C(=O)C2=O (centres unmarked) [Compound 12] | – | – | – | – | – | 2.1 fold | no visually observable symptoms with exception of weight loss | – | – | no visually observable symptoms with exception of weight loss |
| CC(C)=CC1(C)CCC2=C(O1)c1ccccc1C(=O)C2=O (centres unmarked) [Compound 13] | – | – | – | – | – | 2.3 fold | no visually observable symptoms with exception of weight loss | – | – | no visually observable symptoms with exception of weight loss |
| CC(C)=C/C(C)=C/C1(C)CCC2=C(O1)c1ccccc1C(=O)C2=O (centres unmarked) [Compound 14] | 160 | 95 | 87 | 193 | 216 | 1.5 fold | no visually observable symptoms with exception of weight loss | 61.3 g | -4.7% | no visually observable symptoms with exception of weight loss |
| C[C@H]1OC2=C(C(=O)C(=O)c3ccccc32)[C@@H]1C [Compound 16] | – | – | – | – | – | 2.5 fold | no visually observable symptoms with exception of weight loss | – | – | no visually observable symptoms with exception of weight loss |
| C[C@@H]1C2=C(O[C@@H]1C)c1ccccc1C(=O)C2=O [Compound 17] | – | – | – | – | – | 2.2 fold | no visually observable symptoms with exception of weight loss | – | – | no visually observable symptoms with exception of weight loss |
| CC1CCC2=C(O1)c1ccccc1C(=O)C2=O (centres unmarked) [Compound 18] | – | – | – | – | – | 2.3 fold | – | – | – | – |
| CCC1CC2=C(O1)c1ccccc1C(=O)C2=O (centres unmarked) [Compound 19] | – | – | – | – | – | 2.1 fold | – | – | – | – |
| CC1(C)CCCC2(C)OC3=C(CC12)C(=O)C(=O)c1ccccc13 (centres unmarked) [Compound 20] | – | – | – | – | – | 2.3 fold | – | – | – | – |
| CC1(C)CCC2=C(O1)c1cc(Cl)ccc1C(=O)C2=O [Compound 21] | 127 | 46 | 39 | 127 | 138 | 2.2 fold | – | 41.1 g | -28.3% | – |
| Cc1ccc2c(c1)C1=C(CCC(C)(C)O1)C(=O)C2=O [Compound 22] | 132 | 57 | 49 | 142 | 168 | 1.9 fold | – | 48.7 g | -16.5% | – |
| CCC1(C)CCC2=C(O1)c1ccccc1C(=O)C2=O (centres unmarked) [Compound 24] | – | – | – | – | – | 2.1 fold | no visually observable symptoms with exception of weight loss | – | – | no visually observable symptoms with exception of weight loss |
| CCC1(CC)CCC2=C(O1)c1ccccc1C(=O)C2=O [Compound 25] | – | – | – | – | – | 1.8 fold | no visually observable symptoms with exception of weight loss | – | – | no visually observable symptoms with exception of weight loss |
| CC1(c2ccccc2)CCC2=C(O1)c1ccccc1C(=O)C2=O (centres unmarked) [Compound 26] | 128 | 40 | 33 | 131 | 137 | 2.2 fold | no visually observable symptoms with exception of weight loss | 42.3 g | -25.5% | no visually observable symptoms with exception of weight loss |
| O=C1C(=O)c2ccccc2C2=C1CCC1(CCCCC1)O2 [Compound 27] | – | – | – | – | – | 1.7 fold | – | – | – | – |
| O=C1C(=O)c2ccccc2C2=C1CCC1(CCCC1)O2 [Compound 28] | – | – | – | – | – | 1.7 fold | – | – | – | – |
| Cc1cc2c(o1)-c1ccccc1C(=O)C2=O [Compound 29] | – | – | – | – | – | 1.3 fold | – | – | – | – |
| Cc1coc2c1C(=O)C(=O)c1ccccc1-2 [Compound 30] | – | – | – | – | – | 1.2 fold | – | – | – | – |
| Cc1ccc2c(c1)C(=O)C(=O)c1c(C)coc1-2 [Compound 31] | – | – | – | – | – | 1.2 fold | – | – | – | – |
| Cc1ccc2c(c1)-c1occ(C)c1C(=O)C2=O [Compound 32] | – | – | – | – | – | 1.3 fold | – | – | – | – |
